Experiment [1] deals with Serine/threonine-protein kinase MRCK alpha (Homo sapiens) (UniProt Q5VT25). Put plainly: MRCKalpha(h) Eurofins kinase panel. The settings on record: Compound concentration 1.0 uM.
In experiment [2] the target is T1, Tyrosine-protein kinase receptor TYRO3 (Homo sapiens) (UniProt Q06418).
T1 sequence (whole entry): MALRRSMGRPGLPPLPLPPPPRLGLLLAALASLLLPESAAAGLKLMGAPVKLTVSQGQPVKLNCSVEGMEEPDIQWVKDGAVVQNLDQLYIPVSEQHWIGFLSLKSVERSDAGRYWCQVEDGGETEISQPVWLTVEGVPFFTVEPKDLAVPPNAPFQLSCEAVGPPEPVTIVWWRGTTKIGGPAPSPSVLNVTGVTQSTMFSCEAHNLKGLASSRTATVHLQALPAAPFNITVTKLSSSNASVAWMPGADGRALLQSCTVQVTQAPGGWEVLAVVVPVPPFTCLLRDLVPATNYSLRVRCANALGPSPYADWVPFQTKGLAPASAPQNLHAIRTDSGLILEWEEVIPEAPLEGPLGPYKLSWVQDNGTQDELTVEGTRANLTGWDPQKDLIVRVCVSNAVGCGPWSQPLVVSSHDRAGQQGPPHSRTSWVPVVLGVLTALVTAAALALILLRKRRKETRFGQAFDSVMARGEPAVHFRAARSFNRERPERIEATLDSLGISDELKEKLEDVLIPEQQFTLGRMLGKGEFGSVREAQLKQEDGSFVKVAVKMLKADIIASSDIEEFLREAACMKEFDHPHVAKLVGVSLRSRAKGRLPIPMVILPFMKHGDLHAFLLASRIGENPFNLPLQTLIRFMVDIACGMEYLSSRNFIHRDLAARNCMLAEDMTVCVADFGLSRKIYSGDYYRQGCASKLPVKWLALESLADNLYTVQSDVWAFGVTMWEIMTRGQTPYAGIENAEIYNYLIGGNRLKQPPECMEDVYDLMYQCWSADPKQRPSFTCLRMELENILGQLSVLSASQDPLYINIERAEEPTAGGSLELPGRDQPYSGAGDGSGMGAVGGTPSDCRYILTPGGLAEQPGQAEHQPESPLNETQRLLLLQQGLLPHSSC
Put plainly: Rse(h) Eurofins kinase panel. The settings on record: Compound concentration 1.0 uM.

Experiment [3] concerns the target 5'-AMP-activated protein kinase catalytic subunit alpha-1 (Homo sapiens, UniProt Q13131). To be noted: Compound concentration 1.0 uM.
Experiment [4] relates to NCI-H520. Put plainly: NCI- H520 cell line Proliferation assay. The format is functional, Homo sapiens. The settings on record: time 3 day.
Experiment [5] has as its target T2, Inhibitor of nuclear factor kappa-B kinase subunit alpha (Homo sapiens) (UniProt O15111).
T2 sequence (whole entry): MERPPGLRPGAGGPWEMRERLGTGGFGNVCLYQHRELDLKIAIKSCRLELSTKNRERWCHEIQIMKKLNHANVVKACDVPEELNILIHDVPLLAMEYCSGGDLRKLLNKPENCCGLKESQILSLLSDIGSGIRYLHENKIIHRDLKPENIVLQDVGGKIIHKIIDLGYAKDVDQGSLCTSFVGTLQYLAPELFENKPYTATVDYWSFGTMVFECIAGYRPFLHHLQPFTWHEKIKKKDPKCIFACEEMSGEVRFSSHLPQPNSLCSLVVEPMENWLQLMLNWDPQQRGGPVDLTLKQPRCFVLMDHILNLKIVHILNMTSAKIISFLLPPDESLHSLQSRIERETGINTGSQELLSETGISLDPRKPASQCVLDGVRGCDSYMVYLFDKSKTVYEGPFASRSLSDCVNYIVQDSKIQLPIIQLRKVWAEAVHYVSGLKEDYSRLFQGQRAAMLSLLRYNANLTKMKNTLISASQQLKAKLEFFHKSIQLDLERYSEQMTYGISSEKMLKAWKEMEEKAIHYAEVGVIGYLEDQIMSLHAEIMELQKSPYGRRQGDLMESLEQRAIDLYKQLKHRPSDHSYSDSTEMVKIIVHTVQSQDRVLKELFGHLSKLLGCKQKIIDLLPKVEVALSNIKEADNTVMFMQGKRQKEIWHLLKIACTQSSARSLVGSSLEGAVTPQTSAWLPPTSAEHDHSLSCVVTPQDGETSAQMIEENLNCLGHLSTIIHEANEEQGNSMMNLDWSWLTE
Put plainly: IKKalpha(h) Eurofins kinase panel. The settings on record: Compound concentration 1.0 uM.

Experiment [6] deals with Ribosomal protein S6 kinase alpha-3 (Homo sapiens, UniProt P51812).
Experiment [7] deals with Tyrosine-protein kinase Blk (Homo sapiens) (UniProt P51451). Put plainly: Blk(h) Eurofins kinase panel. To be noted: Compound concentration 1.0 uM.
Experiment [8] addresses Maternal embryonic leucine zipper kinase (Homo sapiens) (UniProt Q14680). Put plainly: MELK(h) Eurofins kinase panel. The settings on record: Compound concentration 1.0 uM.
Experiment [9] addresses T3, Cytoplasmic tyrosine-protein kinase BMX (Homo sapiens) (UniProt P51813).
T3 sequence (whole entry): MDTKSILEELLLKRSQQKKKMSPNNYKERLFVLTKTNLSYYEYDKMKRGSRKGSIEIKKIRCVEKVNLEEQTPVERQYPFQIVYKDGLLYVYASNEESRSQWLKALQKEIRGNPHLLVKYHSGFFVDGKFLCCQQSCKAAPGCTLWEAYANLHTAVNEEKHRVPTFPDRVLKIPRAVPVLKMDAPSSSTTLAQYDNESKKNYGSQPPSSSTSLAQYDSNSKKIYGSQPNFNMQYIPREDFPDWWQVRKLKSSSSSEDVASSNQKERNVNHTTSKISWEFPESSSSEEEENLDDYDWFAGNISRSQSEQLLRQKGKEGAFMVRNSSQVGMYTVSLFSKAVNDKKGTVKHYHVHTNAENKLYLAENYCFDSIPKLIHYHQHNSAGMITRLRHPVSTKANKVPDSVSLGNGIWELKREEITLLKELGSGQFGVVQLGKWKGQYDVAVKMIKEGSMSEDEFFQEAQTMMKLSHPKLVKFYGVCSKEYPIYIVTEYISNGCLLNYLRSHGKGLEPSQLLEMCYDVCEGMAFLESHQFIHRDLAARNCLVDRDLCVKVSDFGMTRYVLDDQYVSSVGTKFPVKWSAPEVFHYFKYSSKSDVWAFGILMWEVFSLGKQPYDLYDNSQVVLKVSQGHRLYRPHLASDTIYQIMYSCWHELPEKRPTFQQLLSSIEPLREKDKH
Put plainly: Bmx(h) Eurofins kinase panel. To be noted: Compound concentration 1.0 uM.

The subject of experiment [10] is LNCaP C4-2B. Put plainly: C4-2B cell line Proliferation assay. To be noted: time 6 day. The format is functional, Homo sapiens.
Experiment [11] has as its target Dual specificity protein kinase CLK3 (Homo sapiens) (UniProt P49761). Put plainly: CLK3(h) Eurofins kinase panel. The settings on record: Compound concentration 1.0 uM.
Experiment [12] deals with Mitogen-activated protein kinase kinase kinase 9 (Homo sapiens) (UniProt P80192). Put plainly: MLK1(h) Eurofins kinase panel. The settings on record: Compound concentration 1.0 uM.
Experiment [13] deals with Calcium/calmodulin-dependent protein kinase kinase 2 (Homo sapiens) (UniProt Q96RR4). Put plainly: CaMKK2(h) Eurofins kinase panel. The settings on record: Compound concentration 1.0 uM.
The target of experiment [14] is Serine/threonine-protein kinase PRP4 homolog (Homo sapiens) (UniProt Q13523). Put plainly: PRP4(h) Eurofins kinase panel. The settings on record: Compound concentration 1.0 uM.
Sequence of Serine/threonine-protein kinase PRP4 homolog (Homo sapiens) (Q13523 whole entry): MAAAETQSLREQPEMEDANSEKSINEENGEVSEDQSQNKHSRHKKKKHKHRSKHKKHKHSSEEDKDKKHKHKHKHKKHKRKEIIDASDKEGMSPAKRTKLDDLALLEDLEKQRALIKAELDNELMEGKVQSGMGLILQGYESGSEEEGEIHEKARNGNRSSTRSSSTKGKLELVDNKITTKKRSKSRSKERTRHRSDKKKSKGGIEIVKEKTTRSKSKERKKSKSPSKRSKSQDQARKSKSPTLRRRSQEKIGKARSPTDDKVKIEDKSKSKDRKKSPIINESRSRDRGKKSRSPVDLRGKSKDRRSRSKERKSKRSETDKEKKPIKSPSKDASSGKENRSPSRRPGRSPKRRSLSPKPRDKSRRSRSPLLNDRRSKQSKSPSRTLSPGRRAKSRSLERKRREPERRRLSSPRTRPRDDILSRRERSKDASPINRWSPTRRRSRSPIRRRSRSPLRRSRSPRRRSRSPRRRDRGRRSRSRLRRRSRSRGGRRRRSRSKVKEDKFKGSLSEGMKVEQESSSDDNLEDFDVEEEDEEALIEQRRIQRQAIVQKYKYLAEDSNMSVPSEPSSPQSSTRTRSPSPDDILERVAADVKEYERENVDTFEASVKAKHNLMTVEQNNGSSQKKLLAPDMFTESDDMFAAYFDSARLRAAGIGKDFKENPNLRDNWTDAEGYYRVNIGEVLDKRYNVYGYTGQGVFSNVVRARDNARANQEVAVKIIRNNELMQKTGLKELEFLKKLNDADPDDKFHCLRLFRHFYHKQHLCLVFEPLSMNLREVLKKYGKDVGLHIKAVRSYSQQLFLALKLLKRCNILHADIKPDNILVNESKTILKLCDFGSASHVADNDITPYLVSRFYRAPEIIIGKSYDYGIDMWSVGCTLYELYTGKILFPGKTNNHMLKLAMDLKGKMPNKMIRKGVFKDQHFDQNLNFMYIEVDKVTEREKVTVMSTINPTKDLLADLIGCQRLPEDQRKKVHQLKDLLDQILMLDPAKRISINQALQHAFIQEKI

Sequence of Serine/threonine-protein kinase MRCK alpha (Homo sapiens) (Q5VT25 whole entry): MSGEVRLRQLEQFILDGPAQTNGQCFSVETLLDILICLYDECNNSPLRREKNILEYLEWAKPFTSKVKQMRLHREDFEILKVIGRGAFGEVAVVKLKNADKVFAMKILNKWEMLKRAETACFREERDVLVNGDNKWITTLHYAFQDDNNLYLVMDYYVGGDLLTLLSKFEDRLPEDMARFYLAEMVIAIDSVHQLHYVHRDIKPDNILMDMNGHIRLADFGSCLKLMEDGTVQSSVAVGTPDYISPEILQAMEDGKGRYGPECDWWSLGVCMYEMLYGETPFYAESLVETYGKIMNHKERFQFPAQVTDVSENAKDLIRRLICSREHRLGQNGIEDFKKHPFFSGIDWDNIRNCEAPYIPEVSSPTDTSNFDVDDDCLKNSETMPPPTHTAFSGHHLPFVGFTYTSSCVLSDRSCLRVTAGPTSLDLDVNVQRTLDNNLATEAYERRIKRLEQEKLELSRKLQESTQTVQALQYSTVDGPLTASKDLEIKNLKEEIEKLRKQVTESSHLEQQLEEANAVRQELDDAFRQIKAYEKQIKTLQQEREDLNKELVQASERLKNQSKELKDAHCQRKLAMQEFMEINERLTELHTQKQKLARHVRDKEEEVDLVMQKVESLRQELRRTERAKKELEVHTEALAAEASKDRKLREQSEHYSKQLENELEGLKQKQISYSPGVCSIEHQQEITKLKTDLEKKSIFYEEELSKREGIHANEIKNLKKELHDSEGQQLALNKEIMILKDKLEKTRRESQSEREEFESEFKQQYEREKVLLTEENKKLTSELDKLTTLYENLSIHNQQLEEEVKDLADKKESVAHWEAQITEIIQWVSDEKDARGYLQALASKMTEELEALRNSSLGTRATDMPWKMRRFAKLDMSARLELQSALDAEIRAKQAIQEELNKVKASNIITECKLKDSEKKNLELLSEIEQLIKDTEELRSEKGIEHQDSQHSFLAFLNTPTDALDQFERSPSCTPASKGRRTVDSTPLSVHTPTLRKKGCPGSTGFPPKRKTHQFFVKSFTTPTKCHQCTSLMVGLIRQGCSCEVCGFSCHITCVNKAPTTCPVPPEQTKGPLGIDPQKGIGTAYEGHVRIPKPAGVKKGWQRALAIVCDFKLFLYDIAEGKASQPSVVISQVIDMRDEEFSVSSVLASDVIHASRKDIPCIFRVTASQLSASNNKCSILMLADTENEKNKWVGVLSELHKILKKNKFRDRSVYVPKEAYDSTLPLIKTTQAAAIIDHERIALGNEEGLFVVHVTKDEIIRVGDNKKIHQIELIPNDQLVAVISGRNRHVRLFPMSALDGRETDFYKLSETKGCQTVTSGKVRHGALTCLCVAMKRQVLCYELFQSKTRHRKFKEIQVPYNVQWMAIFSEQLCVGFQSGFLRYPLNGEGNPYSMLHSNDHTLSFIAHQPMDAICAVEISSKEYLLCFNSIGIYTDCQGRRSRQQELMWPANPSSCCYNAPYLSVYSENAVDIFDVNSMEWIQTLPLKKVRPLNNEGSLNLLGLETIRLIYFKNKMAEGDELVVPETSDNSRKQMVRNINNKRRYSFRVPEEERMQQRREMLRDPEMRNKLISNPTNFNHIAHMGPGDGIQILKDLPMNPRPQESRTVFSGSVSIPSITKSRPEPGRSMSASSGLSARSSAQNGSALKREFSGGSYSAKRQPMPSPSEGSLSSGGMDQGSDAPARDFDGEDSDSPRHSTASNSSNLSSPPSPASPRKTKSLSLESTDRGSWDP
Sequence of Tyrosine-protein kinase Blk (Homo sapiens) (P51451 2-505 limits assumed): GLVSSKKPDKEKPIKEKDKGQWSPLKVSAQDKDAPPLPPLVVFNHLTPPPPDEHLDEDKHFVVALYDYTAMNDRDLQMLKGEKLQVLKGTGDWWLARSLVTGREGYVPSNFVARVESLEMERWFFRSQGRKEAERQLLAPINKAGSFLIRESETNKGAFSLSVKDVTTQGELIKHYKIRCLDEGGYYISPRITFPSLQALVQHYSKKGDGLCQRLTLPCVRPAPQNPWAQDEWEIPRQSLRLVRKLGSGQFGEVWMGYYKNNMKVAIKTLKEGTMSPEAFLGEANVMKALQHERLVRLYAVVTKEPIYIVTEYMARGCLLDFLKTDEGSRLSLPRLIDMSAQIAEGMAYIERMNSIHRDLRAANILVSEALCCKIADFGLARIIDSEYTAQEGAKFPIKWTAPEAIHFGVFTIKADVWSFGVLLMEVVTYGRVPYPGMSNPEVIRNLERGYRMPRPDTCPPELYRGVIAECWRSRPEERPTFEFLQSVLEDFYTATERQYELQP
Sequence of Maternal embryonic leucine zipper kinase (Homo sapiens) (Q14680 whole entry, looked up): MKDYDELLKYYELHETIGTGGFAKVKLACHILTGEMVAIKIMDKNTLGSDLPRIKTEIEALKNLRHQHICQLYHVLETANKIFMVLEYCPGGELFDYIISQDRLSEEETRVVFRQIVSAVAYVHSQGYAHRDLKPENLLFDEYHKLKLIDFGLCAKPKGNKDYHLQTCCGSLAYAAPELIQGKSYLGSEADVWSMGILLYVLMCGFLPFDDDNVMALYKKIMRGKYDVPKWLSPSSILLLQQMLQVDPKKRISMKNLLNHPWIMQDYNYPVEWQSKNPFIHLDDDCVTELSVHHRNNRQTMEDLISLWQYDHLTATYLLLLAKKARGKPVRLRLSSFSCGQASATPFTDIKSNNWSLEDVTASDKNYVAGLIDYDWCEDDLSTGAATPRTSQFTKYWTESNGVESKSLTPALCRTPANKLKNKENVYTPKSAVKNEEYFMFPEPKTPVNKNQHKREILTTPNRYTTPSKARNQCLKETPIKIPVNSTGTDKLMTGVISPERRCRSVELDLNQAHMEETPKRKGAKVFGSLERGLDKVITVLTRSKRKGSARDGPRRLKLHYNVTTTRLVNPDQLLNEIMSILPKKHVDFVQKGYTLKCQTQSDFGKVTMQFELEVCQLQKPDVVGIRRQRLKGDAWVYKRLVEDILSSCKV
Sequence of Calcium/calmodulin-dependent protein kinase kinase 2 (Homo sapiens) (Q96RR4 2-588 limits assumed): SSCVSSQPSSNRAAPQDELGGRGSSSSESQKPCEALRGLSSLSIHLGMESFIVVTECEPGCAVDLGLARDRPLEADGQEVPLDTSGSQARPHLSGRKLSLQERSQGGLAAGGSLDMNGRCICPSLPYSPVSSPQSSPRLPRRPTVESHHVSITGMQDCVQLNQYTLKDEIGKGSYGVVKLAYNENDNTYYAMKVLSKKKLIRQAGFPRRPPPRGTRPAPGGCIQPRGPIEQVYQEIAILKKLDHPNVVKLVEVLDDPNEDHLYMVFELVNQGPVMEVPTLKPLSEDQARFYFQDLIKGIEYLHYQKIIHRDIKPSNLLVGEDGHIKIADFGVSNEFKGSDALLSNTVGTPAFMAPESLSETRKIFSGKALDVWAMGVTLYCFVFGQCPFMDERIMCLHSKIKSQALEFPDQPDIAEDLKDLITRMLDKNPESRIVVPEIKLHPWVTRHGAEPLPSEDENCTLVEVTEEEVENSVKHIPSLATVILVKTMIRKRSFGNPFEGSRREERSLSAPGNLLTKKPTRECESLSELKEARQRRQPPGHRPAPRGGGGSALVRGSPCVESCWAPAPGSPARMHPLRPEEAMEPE
Sequence of Dual specificity protein kinase CLK3 (Homo sapiens) (P49761 whole entry, looked up): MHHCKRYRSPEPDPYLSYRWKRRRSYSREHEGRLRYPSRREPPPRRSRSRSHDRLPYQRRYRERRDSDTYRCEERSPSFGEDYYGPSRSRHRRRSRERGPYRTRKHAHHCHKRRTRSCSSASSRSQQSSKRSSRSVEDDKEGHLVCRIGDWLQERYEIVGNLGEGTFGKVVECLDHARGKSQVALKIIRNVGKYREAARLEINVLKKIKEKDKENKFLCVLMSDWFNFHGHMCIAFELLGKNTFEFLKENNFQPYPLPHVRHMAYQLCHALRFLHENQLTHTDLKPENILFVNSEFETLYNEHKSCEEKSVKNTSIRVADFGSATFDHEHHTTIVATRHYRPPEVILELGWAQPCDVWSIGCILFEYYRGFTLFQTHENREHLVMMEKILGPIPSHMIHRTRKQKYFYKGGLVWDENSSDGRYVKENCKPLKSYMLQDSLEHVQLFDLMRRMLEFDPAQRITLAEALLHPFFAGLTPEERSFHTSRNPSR

Broadly, the IC50 is the concentration that gives 50% inhibition. A higher IC50 goes with a need for much substance. With `CCc1ccccc1C(=O)Nc1n[nH]c2c(C)c(F)c(C3C(C#N)=C(C)N(C)C(C)=C3C#N)cc12` [BAY-3827], the % residual kinase activity in [1] was 98%; in experiment [2], 105%; in experiment [3], 1%; in experiment [5], 107%; in [7], 111%; in [8], 39%. The % residual kinase activity was 113% in experiment [9]; 109% in experiment [11]; 93% in experiment [12]; 101% in experiment [13]; 96% in experiment [14]. Also, the “Cell Proliferation IC50” value in experiment [4] was 24.1 µM; in [10], >10 µM. Also, half-maximal inhibition in experiment [6] (IC50) required 0.052 µM.
